Test system: NanoLuc-PEST expressing L. mexicana axenic amastigotes
Assay: microbe, parasite or virus in culture
Type: cell-based
Details: for viability at 2 µM / viability at 10 µM: Leishmania mexicana, read-out: Relative Bioluminescence (%); for viability at 2 µM / viability at 10 µM / Relative Bioluminescence (%): 72 hours, relative to DMSO only control, n = 4

SMILES | viability at 2 µM (2 µM compound) [%] | viability at 10 µM (10 µM compound) [%] | Relative Bioluminescence (%) (2 µM compound) | Relative Bioluminescence (%) (10 µM compound) | EC50 (hit compounds from the axenic amastigote screen, S3 Table, read-out: EC50, Axenic Amastigotes) [nM]
CO[C@H]1/C=C/O[C@@]2(C)Oc3c(C)c(O)c4c(O)c(c(/C=N/N5CCN(C)CC5)c(O)c4c3C2=O)NC(=O)/C(C)=C\C=C\[C@H](C)[C@H](O)[C@@H](C)[C@@H](O)[C@@H](C)[C@H](OC(C)=O)[C@@H]1C [MMV688775, Rifampicin, reference compound] | 47.6 | 2.74 | – | – | –
Cc1cccnc1NC(=O)c1cccc(OCc2c(C)noc2C)c1 [MMV688793] | – | – | 74.59 | 52.13 | –
O=C(NCCc1ccn(-c2ccccc2)n1)C1CCCCC1 [MMV688795] | – | – | 79.12 | 86.70 | –
O=C(NCc1nnc2n1CCCCC2)c1ccc(-c2ccc(F)cc2)o1 [MMV688796] | – | – | 88.65 | 91.91 | –
CC1CCCCN1C(=O)NCCc1coc(-c2ccc(F)cc2)n1 (stereo not shown) [MMV688797] | – | – | 76.99 | 71.92 | –
CS(=O)(=O)c1ccccc1C(=O)N(Cc1ccccc1)c1ccccc1 [MMV688798] | – | – | 64.37 | 62.11 | –
COc1ccc2nccc(NC(=O)C3CCN(CCc4ccc(Cl)cc4)CC3)c2n1 [MMV688844] | – | – | 77.54 | 91.56 | –
O=C(N[C@H](Cc1ccccc1)C(=O)Nc1ccccc1N1CCOCC1)c1cccs1 [MMV688845] | – | – | 64.60 | 67.13 | –
Cc1ccccc1CN1CCC(O)(c2ccc(Cl)c(C(F)(F)F)c2)CC1 [MMV688846] | – | – | 63.77 | 60.58 | –
CC(C)(C)n1nc(Cc2ccc(F)c(Cl)c2)c2c(N)ncnc21 [MMV688852] | – | – | 73.28 | 34.77 | –
CCOc1ccc2cc(-c3nn(C(C)(C)C)c(N)c3C(N)=O)cnc2c1 [MMV688853] | – | – | 34.19 | 42.96 | –
CCOc1ccc2cc(-c3nn(CC4CCN(C)CC4)c4ncnc(N)c34)ccc2c1 [MMV688854] | – | – | 92.07 | 66.13 | –
CN1CCN(c2cc(-c3ccc(F)cc3)nc(-c3ccncc3)n2)CC1 [MMV688888] | – | – | 78.28 | 89.99 | –
Clc1ccc(CCNc2cc(-c3ccccc3)nc3ncnn23)cc1 [MMV688889] | – | – | 73.23 | 59.03 | –
COc1cc(Br)cc2cc(C(=O)Nc3cccc(C(F)(F)F)c3)c(=O)oc12 [MMV688891] | – | – | 75.74 | 64.36 | –
OC[C@H]1O[C@@H](n2c3ccc(Cl)cc3c3c(-c4cc5ccccc5o4)ncnc32)C(O)[C@H]1O (stereo partly shown) [MMV688921] | – | – | 84.76 | 105.56 | –
CCc1nn(C)c(C(=O)NCc2ccc(Oc3ccc(C)cc3)cc2)c1Cl [MMV688934, Tolfenpyrad] | 68.5 | 68.1 | – | – | –
O=C(c1ccco1)N(CCCn1ccnc1)c1nc2c(Cl)cccc2s1 [MMV688936] | – | – | 80.40 | 77.21 | –
CCOc1ccc(-c2nc(CNCCc3ccc(F)cc3)cs2)cc1 [MMV688938] | – | – | 63.80 | 76.80 | –
Cc1ccc2nc(C)c(-c3ccn(Cc4ccccc4)n3)n2c1 [MMV688939] | – | – | 75.51 | 51.85 | –
COc1cc(CN2CCC3(C=Cc4ccccc43)CC2)cc2c1OCO2 [MMV688941] | – | – | 78.23 | 74.74 | –
CC(C)(C)C(O)C(Oc1ccc(-c2ccccc2)cc1)n1cncn1 (stereo not shown) [MMV688942, Bitertanol] | 21 | 15.4 | – | – | –
CC1COC(Cn2cncn2)(c2ccc(Oc3ccc(Cl)cc3)cc2Cl)O1 (stereo not shown) [MMV688943, Difenoconazol] | – | – | 26.19 | 8.96 | –
Cc1cc(NC(=O)c2ccc(Oc3ccc(Cl)cc3O)o2)no1 [MMV688955] | – | – | 95.96 | 96.76 | –

SMILES | viability at 2 µM (2 µM compound) [%] | viability at 10 µM (10 µM compound) [%] | Relative Bioluminescence (%) (2 µM compound) | Relative Bioluminescence (%) (10 µM compound) | EC50 (hit compounds from the axenic amastigote screen, S3 Table, read-out: EC50, Axenic Amastigotes) [nM]
CC(=O)OCC1OC([S-])C(OC(C)=O)C(OC(C)=O)C1OC(C)=O.CCP(CC)CC.[Au+] (stereo not shown) [MMV688978, Auranofin, reference compound] | – | – | -2.60 | -2.20 | 170
CCc1cc(=O)n(C)c(SC(C)C(=O)Nc2ccc(F)cc2)n1 (stereo not shown) [MMV688980] | – | – | 76.34 | 48.08 | –
CC(=O)Oc1ccccc1C(=O)Nc1ncc([N+](=O)[O-])s1 [MMV688991, Nitazoxanide, reference compound] | 71.1 | 0.38 | – | – | –
[H]/N=C(/N)N[C@H]1[C@H](O)[C@@H](O)[C@H](O[C@@H]2O[C@@H](C)[C@](O)(C=O)[C@H]2O[C@@H]2O[C@@H](CO)[C@H](O)[C@@H](O)[C@@H]2NC)[C@@H](N/C(N)=N\[H])[C@@H]1O [MMV688994, Streptomycin, reference compound] | 94 | 84.3 | – | – | –
Cc1ccc(S(=O)(=O)Nc2ccc(CN3CCN(C(=O)c4cccc(C#N)c4)CC3)cc2)cc1 [MMV689028] | – | – | 54.14 | 72.62 | –
COc1ccc(S(=O)(=O)Nc2ccc(CN3CCN(C(=O)c4cccc(C#N)c4)CC3)cc2)cc1 [MMV689029] | – | – | 67.41 | 57.59 | –
Clc1ccc(CN2CCN(C3=NCCN3)CC2)cc1Cl [MMV689060] | – | – | 99.56 | 112.63 | –
CC(=O)Nc1ccc(-c2noc(CC3CCCN(Cc4cccc(F)c4C)C3)n2)cc1 (stereo not shown) [MMV689061] | – | – | 77.60 | 95.91 | –
FC(F)(F)c1ccc(N(c2cccnc2)C2CCN(c3ccc(C(F)(F)F)cn3)CC2)cc1 [MMV689243] | – | – | 34.53 | 8.50 | –
O=C([C@@H](c1ccc(Cl)cc1)c1cccnc1)N1CCN(c2ccc(C(F)(F)F)cc2)CC1 [MMV689244] | – | – | 23.97 | 0.66 | –
Nc1ncnc2c1ncn2C[C@@H](O)[C@@H](O)C(=O)O [MMV689255, D-Eritadenine] | – | – | 68.65 | 73.04 | –
CC(c1cc(Cl)cc(Cl)c1)N(C)c1ncc2c(N)nc(N)nc2n1 (stereo not shown) [MMV689437] | – | – | 37.21 | 1.17 | –
CNc1cc(C)nc(C2CN(C(=O)c3n[nH]c4ccccc34)CCO2)c1 (stereo not shown) [MMV689709] | – | – | 77.39 | 68.10 | –
COc1nc2ccc(Br)cc2cc1[C@@H](c1ccccc1)[C@@](O)(CCN(C)C)c1cccc2ccccc12 [MMV689758, Bedaquiline, reference compound] | 94.9 | 45.4 | – | – | –
COc1ccc(C2=NN(C3CCCCCC3)C(=O)[C@@H]3CC=CC[C@H]23)cc1OCCCCOc1ccc(-c2nn[nH]n2)cc1 [MMV690027] | – | – | 96.72 | 33.47 | –
COc1ccc(C2=NN(C3CCCCCC3)C(=O)C2(C)C)cc1OCCCCOc1ccc(-c2nn[nH]n2)cc1 [MMV690028] | – | – | 55.46 | 1.50 | –
C[C@H](c1ccc2c(c1)CCCC2)N(C)c1ncc2c(N)nc(N)nc2n1 [MMV690103] | – | – | 59.86 | 0.48 | –
CCc1ccc(C(NCc2nc(N)nc(N(C)C)n2)C(C)C)cc1 (stereo not shown) [MMV1019989] | – | – | 59.90 | 45.92 | –
O=C(Nc1nc(-c2ccccn2)cs1)C1CC1c1ccccc1F (stereo not shown) [MMV1028806] | – | – | 58.01 | -0.60 | –
CNC(=O)CNc1nc(-c2ccccn2)nc2scc(-c3ccccc3)c12 [MMV1029203] | – | – | 83.99 | 52.70 | –
CCCn1c(NC(=O)c2ccc3ccccc3n2)nc2ccccc21 [MMV1030799] | – | – | 37.62 | -5.56 | –
CCNC(=O)C(C)Nc1nc(-c2cccnc2)nc2sc(C)c(C)c12 (stereo not shown) [MMV1037162] | – | – | 83.26 | 85.96 | –
Cc1ccc(-c2nc(CN(Cc3ccccn3)C(C)C)cs2)o1 [MMV1088520] | – | – | 70.72 | -3.27 | –
COc1cccn2c(C(=O)N3CCCCC3)c(C(F)(F)F)nc12 [MMV1110498] | – | – | 66.34 | 77.35 | –
